Measurements reported in patent publication US11440918B2, “p38α mitogen-activated protein kinase inhibitors” (priority 2020, dated 2022).

Assays:
[1] = tested on: SARS-CoV-2 isolate BetaCoV/France/IDF0372/2020 (SARS-CoV-2 Paris); assay: SARS-CoV-2 anti-viral assay Paris (viral genomes by RT-qPCR); format: cell-based; settings: Severe acute respiratory syndrome coronavirus 2; SARS-CoV-2 Paris isolate, 48 hours
[2] = tested on: SARS-CoV-2, isolate USA-WA1/2020 (SARS-CoV-2 New York); assay: SARS-CoV-2 anti-viral assay New York (N-protein staining); format: cell-based; settings: Severe acute respiratory syndrome coronavirus 2; SARS-CoV-2 New York isolate, 48 hours; read-out: Anti-Viral NY IC50
SARS-CoV-2 = assay: microbe, parasite or virus in culture; format: cell-based; settings: Severe acute respiratory syndrome coronavirus 2, read-out: IC50 for anti-SARS-CoVID-19 activity
[3] = tested on: SARS-CoV-2 isolate BetaCoV/France/IDF0372/2020 (SARS-CoV-2 Paris); assay: Viral quantification via plaque assay in Paris; format: cell-based; settings: Severe acute respiratory syndrome coronavirus 2
[4] = 10 μM
[5] = 10 μM; remark: listed apart in the source
[6] = 10 μM; remark: listed apart in the source
p38β = p38β (Homo sapiens (Human), UniProt Q15759); assay: Surface plasmon resonance (SPR) assay, Biacore T200
p38β, sequence (Q15759 whole entry): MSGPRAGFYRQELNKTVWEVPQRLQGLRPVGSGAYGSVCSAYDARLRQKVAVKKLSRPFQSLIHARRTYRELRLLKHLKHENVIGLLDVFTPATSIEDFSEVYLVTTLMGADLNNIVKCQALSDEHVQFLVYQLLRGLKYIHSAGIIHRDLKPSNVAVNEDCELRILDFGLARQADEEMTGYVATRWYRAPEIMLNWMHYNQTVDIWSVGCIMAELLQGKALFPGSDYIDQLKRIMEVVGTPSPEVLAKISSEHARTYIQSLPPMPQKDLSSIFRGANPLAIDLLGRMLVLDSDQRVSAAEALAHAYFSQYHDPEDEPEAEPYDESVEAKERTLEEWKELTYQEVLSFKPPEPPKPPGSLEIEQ

| SMILES | IC50 [1] | IC50 [2] | IC50 (SARS-CoV-2) | IC50 [3] | stable in human plasma [4] | stable in monkey plasma [5] | stable in rat plasma [6] | Kd (p38β) |
| --- | --- | --- | --- | --- | --- | --- | --- | --- |
| O=C(Nc1ccc(CN2CC3(COC3)C2)cc1)c1ccc(Cl)cc1 [Compound 2, N-(4-((2-oxa-6-azaspiro[3.3]heptan-6-yl)methyl)phenyl)-4-chlorobenzamide] | 7800 nM | 1200 nM | < 10 µM |  |  |  |  |  |
| O=C(Nc1ccc(CN2CCCOCC2)cc1)c1ccc(Cl)cc1 [Compound 1, N-(4-((1,4-oxazepan-4-yl)methyl)phenyl)-4-chlorobenzamide] | 600 nM | 700 nM | < 10 µM | 1800 nM | at least 4 hours | at least 4 hours | at least 4 hours | < 10 nM |
| C[C@H]1CN(Cc2ccc(NC(=O)c3ccc(Cl)cc3)cc2)C[C@H](C)O1 [Compound 8, 4-chloro-N-(4-(((2S,6S)-2,6-dimethylmorpholino)methyl)phenyl)benzamide] |  |  | < 10 µM |  | at least 4 hours | at least 4 hours | at least 4 hours | < 10 nM |
| O=C(Nc1ccc(CN2CCOCC2)cc1)c1cnc(Cl)nc1 [Compound 3, 2-chloro-N-(4-(morpholinomethyl)phenyl)pyrimidine-5-carboxamide] | 9400 nM | 1200 nM | < 10 µM |  |  |  |  |  |
| O=C(Nc1ccc(CN2CCC(O)C2)cc1)c1ccc(Cl)cc1 (stereo not drawn) [Compound 13, 4-chloro-N-(4-((3-hydroxypyrrolidin-1-yl)methyl)phenyl)benzamide] | 3400 nM |  | < 10 µM |  |  |  |  |  |
| O=C(Nc1ccc(CN2CCC3(CCCO3)C2)cc1)c1ccc(Cl)cc1 (stereo not drawn) [Compound 6, N-(4-((1-oxa-7-azaspiro[4.4]nonan-7-yl)methyl)phenyl)-4-chlorobenzamide] | 2900 nM | 6400 nM | < 10 µM |  | at least 4 hours | at least 4 hours | at least 4 hours | < 10 nM |
| O=C(Nc1ccc(CN2C[C@H]3COC[C@H]3C2)cc1)c1ccc(Cl)cc1 [Compound 10, 4-chloro-N-(4-(((3aR,6aS)-tetrahydro-1H-furo[3,4-c]pyrrol-5(3H)—1)methyl)phenyl)benzamide] | 1300 nM | 200 nM |  | 2800 nM | at least 4 hours | at least 4 hours | at least 4 hours |  |
| O=C(Nc1ccc(CN2CCC(O)CC2)cc1)c1ccc(Cl)cc1 [Compound 11, 4-chloro-N-(4-((4-hydroxypiperidin-1-yl)methyl)phenyl)benzamide] | 1600 nM | 200 nM | < 10 µM | 2100 nM |  |  |  |  |
| O=C(Nc1ccc(CN2C[C@@H]3COC[C@@H](C3)C2)cc1)c1ccc(Cl)cc1 [Compound 9, N-(4-(((1R,5S)-3-oxa-7-azabicyclo[3.3.1]nonan-7-yl)methyl)phenyl)-4-chlorobenzamide] | 3100 nM |  |  |  |  |  |  |  |
| O=C(Nc1ccc(CN2CC3(CCOCC3)C2)cc1)c1ccc(Cl)cc1 [Compound 4, N-(4-((7-oxa-2-azaspiro[3.5]nonan-2-yl)methyl)phenyl)-4-chlorobenzamide] | 2100 nM | 700 nM | < 10 µM | 1400 nM |  |  |  |  |
| CN1CCN(Cc2ccc(NC(=O)c3ccc(Cl)cc3)cc2)CC1 [Compound 17, 4-chloro-N-(4-((4-methylpiperazin-1-yl)methyl)phenyl)benzamide] | 3600 nM | 700 nM | < 10 µM | 2700 nM |  |  |  |  |
| CC(=O)N1CCN(Cc2ccc(NC(=O)c3ccc(Cl)cc3)cc2)CC1 [Compound 14, N-(4-((4-acetylpiperazin-1-yl)methyl)phenyl)-4-chlorobenzamide] |  |  |  |  | at least 4 hours | at least 4 hours | at least 4 hours | < 10 nM |
